This note sets out measurements from patent publication US5889002A, “Fused 1,2,4-thiadiazine and fused 1,4-thiazine derivatives, their preparation and use” (Novo Nordisk A/S, priority 1996, dated 1999).

Assay [1] deals with RIN 5F cell line. Description: 86Rb+ efflux from a β-cell line (Rb-efflux in rin 5F cells). Type of assay: cell-based. The conditions noted are these: 1 h at room temperature, Ringer buffer pH 7.1, four parameter logistic curve, read-out: EC50, inhibition of Rb-efflux. The method, then:
^86 Rb^+ efflux from a β-cell line
The RIN 5F cell line was grown in RPMI 1640 with Glutamax I, supplemented with 10% fetal calf serum (from GibcoBRL, Scotland, UK) and maintained in an atmosphere of 5% CO2 /95% air at 37° C. The cells were detached with a Trypsin-EDTA solution (from GibcoBRL, Scotland, UK), resuspended in medium, added 1 mCi/ml ^86 Rb^+ and replated into microtiter plates (96 well cluster 3596, sterile, from Costar Corporation,Massachusetts, U.S.A.) at a density of 50000 cells/well in […], and grown 24 hours before use in assay.
The plates were washed 4 times with Ringer buffer (150 mM NaCl, 10 mM Hepes, 3.0 mM KCl, 1.0 mM CaCl2, 20 mM Sucrose, pH 7.1). Eighty μl Ringer buffer and 1 μl control- or test compound dissolved in DMSO was added. After incubation 1 h at room temperature with a lid, 50 μl of the supernatant was transferred to PicoPlates (Packard Instrument Company, Connecticut, U.S.A.) and 100 μl MicroScint40 (Packard Instrument Company, Connecticut, U.S.A.) added. The plates were counted in TopCount (Packard Instrument Company, Connecticut, U.S.A.) for 1 min/well at the ^32 P program. […]

Assay [2] relates to rat aorta rings. The experiment in a line: Relaxation of rat aorta rings. The settings on record: rat thoracic aorta rings, phenylephrine-contracted to 80% of maximum response; cumulative addition; read-out: EC50 (concentration required to evoke a 50% relaxation of the tissue). The method, then:
The activity of the compounds as potassium channel openers can also be measured as relaxation of rat aortas rings according to the following procedure:
A section of rat thoracic aorta between the aortic arch and the diaphragm was dissected out and mounted as ring preparations as described by Taylor P. D. et al, Brit J. Pharmacol, 111, 42-48 (1994).
After a 45 min. equilibration period under a tension of 2 g, the preparations were contracted to achieve 80% of the maximum response using the required concentration of phenylephrine. When the phenylephrine response reached a plateau, potential vasodilatory agents were added cumulatively to the bath in small volumes using half log molar increments at 2 min intervals. Relaxation was expressed at the percentage of the contracted tension. The potency of a compound was expressed as the concentration required to evoke a 50% relaxation of the tissue.
Relaxation of rat aorta rings

Molecules are shown by their SMILES.

With `CC(C)C(C)NC1=NS(=O)(=O)c2sc(Cl)cc2N1` (centres unmarked) [Compound 1, 6-Chloro-3-(1,2-dimethylpropyl)amino-4H-thieno[3,2-e]-1,2,4-thiadiazine 1,1-dioxide], the values for the EC50 in assay [1] and in assay [2] were 2.7 µM and 1.2 µM, respectively.
For `CCNC1=NS(=O)(=O)c2sc(Cl)cc2N1` [Compound 2, 6-Chloro-3-ethylamino-4H-thieno[3,2-e]-1,2,4-thiadiazine 1,1-dioxide], the EC50 in assay [2] turned out to be 15 µM.
`C[C@H](CO)NC1=NS(=O)(=O)c2sc(Cl)cc2N1` [Compound 16, (R)-6-Chloro-3-(2-hydroxy-1-methylethyl)amino-4H-thieno[3,2-e]-1,2,4-thiadiazine 1,1-dioxide]: the values for the EC50 in assay [1] and in assay [2] were 5.9 µM and 6.1 µM, respectively.
